Data published in US20080113900A1, “Pharmaceutical compositions and therapeutic applications for the use of a synthetic vitamin B12 derivative, glutathionylcobalamin” (priority 2006, published 2008).
Where “and” joins values, the source holds several entries; their conditions need not be identical. Equal entries are not always repeated.

How the values were obtained:
[1] = system: SK-HEP-1 cells; experiment: Protection of endothelial cells from homocysteine-induced cell death (MTS assay); assay type: cell-based, human; conditions: for Absorbance at 490 nm: single replicates Y1-Y6
[2] = Decomposition in PBS at 37° C. monitored by UV/Vis spectrophotometry; assay type: physicochemical
Method: The decomposition of GSCbl, NACCbl, and HcyCbl in PBS at 37° C. was monitored by UV/Vis spectrophotometry.

[3] = system: SK-HEP-1 cells; experiment: Protection of endothelial cells from H2O2-induced cell death (MTS assay); assay type: cell-based, human
Method: The effect of increasing concentrations of NACCbl and GSCbl to protect endothelial cells from the effect of H2O2 was assessed. […] Cell viability was determined by MTS® assay. […] FIG. 3 illustrates that NACCbl and GSCbl protect endothelial cells from the effect of H2O2. […] Cell viability was determined by MTS® assay. […] There was no difference between the protection afforded by NACCbl and that by GSCbl. Both required 100 μM to achieve >80% survival.

[4] = Conc. Hcy 0.000, NACCbl 30 μM, NAC 75 μM, n = 6
[5] = Conc. Hcy 1.780, NACCbl 30 μM, NAC 75 μM, n = 6
[6] = Conc. Hcy 3.125, NACCbl 30 μM, NAC 75 μM, n = 6
[7] = Conc. Hcy 6.250, NACCbl 30 μM, NAC 75 μM, n = 6
[8] = Conc. Hcy 12.500, NACCbl 30 μM, NAC 75 μM, n = 6
[9] = Conc. Hcy 25.000, NACCbl 30 μM, NAC 75 μM, n = 6
[10] = Conc. Hcy 50.000, NACCbl 30 μM, NAC 75 μM, n = 6
[11] = Conc. Hcy 100.000, NACCbl 30 μM, NAC 75 μM, n = 6
[12] = Conc. Hcy 200.000, NACCbl 30 μM, NAC 75 μM, n = 6
[13] = 2 hours, then 25 μM H2O2 24 hours

CC(=O)NC(C[S-])C(=O)O.CC1=C2N=C(C=C3N=C(C(C)=C4[N-]C(C(CC(N)=O)C4(C)CCC(=O)NCC(C)OP(=O)([O-])OC4C(CO)OC(n5cnc6cc(C)c(C)cc65)C4O)C4(C)N=C1C(CCC(N)=O)C4(C)CC(N)=O)C(CCC(N)=O)C3(C)C)C(CCC(N)=O)C2(C)CC(N)=O.[Co+3] [NACCbl, N-acetyl-L-cysteinylcobalamin]
Pre-incubation concentration that protected cells from homocysteine-induced cell death ([1]; 2 hours, then 30 μM homocysteine 24 hours): ≥ 2.0 µM | Normalized Data Log 2, Mean [1, 4]: 94.824 | Normalized Data Log 10, Mean [1, 4]: 100.000 | Normalized Data Log 2, Mean [1, 5]: 91.341 | Normalized Data Log 10, Mean [1, 5]: 96.489 | Normalized Data Log 2, Mean [1, 6]: 80.699 | Normalized Data Log 10, Mean [1, 6]: 85.763 | Normalized Data Log 2, Mean [1, 7]: 75.524 | Normalized Data Log 10, Mean [1, 7]: 80.546 | Normalized Data Log 2, Mean [1, 8]: 70.387 | Normalized Data Log 10, Mean [1, 8]: 75.368 | Normalized Data Log 2, Mean [1, 9]: 62.926 | Normalized Data Log 10, Mean [1, 9]: 67.848 | Normalized Data Log 2, Mean [1, 10]: 56.302 | Normalized Data Log 10, Mean [1, 10]: 61.171 | Normalized Data Log 2, Mean [1, 11]: 52.298 | Normalized Data Log 10, Mean [1, 11]: 57.135 | Normalized Data Log 2, Mean [1, 12]: 40.781 | Normalized Data Log 10, Mean [1, 12]: 45.526 | Absorbance at 490 nm ([1]; Conc. of Hcy 0.000, NACCbl 30 μM, NAC 75 μM): 2.885 and 2.698 and 2.821 and 2.771 and 2.691 and 2.700 | Absorbance at 490 nm ([1]; Conc. of Hcy 1.780, NACCbl 30 μM, NAC 75 μM): 2.647 and 2.551 and 2.789 and 2.890 and 2.549 and 2.611 | Absorbance at 490 nm ([1]; Conc. of Hcy 3.125, NACCbl 30 μM): 2.453 and 2.338 and 2.360 and 2.317 and 2.418 and 2.535 | Absorbance at 490 nm ([1]; Conc. of Hcy 6.250, NACCbl 30 μM, NAC 75 μM): 2.410 and 2.400 and 2.322 and 2.201 and 2.115 and 2.187 | Absorbance at 490 nm ([1]; Conc. of Hcy 12.500, NACCbl 30 μM, NAC 75 μM): 2.210 and 2.110 and 2.045 and 2.065 and 2.101 and 2.324 | Absorbance at 490 nm ([1]; Conc. of Hcy 25.000, NACCbl 30 μM, NAC 75 μM): 2.100 and 2.190 and 1.879 and 1.937 and 1.779 and 1.837 | Absorbance at 490 nm ([1]; Conc. of Hcy 50.000, NACCbl 30 μM, NAC 75 μM): 1.678 and 1.832 and 1.881 and 1.730 and 1.740 and 1.855 | Absorbance at 490 nm ([1]; Conc. of Hcy 100.000, NACCbl 30 μM, NAC 75 μM): 1.678 and 1.592 and 1.694 and 1.773 and 1.732 and 1.639 | Absorbance at 490 nm ([1]; Conc. of Hcy 200.000, NACCbl 30 μM, NAC 75 μM): 1.378 and 1.167 and 1.330 and 1.456 and 1.491 and 1.537 | Protection against homocysteine-induced damage compared with free thiols ([1]; Hcy 30 μM, NAC 45 μM, GSH 100 μM, NACCbl 12.5 μM, GSCbl 15 μM): superior to the free thiols | Prevention of cell death compared with NAC and cyanocobalamin + NAC ([1]; NACCbl 30 μM, variable Hcy): superior to either NAC (75 μM) alone or in combination with CNCbl | Absorbance at 490 nm, Mean ([1]; SK-HEP-1, NACCbl 30 μM, NAC 75 μM, Hcy conc. 200.000, n = 6, label Hcy = Hcy alone): 1.393 | Mean (FIG. 14, protection of SK-HEP-1 cells from Hcy) ([1]; [Hcy] 30 μM, [NAC] = 45 μM, [NACCbl] = 12.5 μM, [Folate] = 25 μM where named in the label, label Hcy/HCy = Hcy alone): 1.696 | Mean (FIG. 14a, protection of SK-HEP-1 cells from Hcy in the presence of folate) ([1]; [Hcy] 30 μM, folate 25 μM present, [GSCbl] = 15 μM, [NACCbl] = 12.5 μM, [CNCbl] = 15 μM, [MeCbl] = 12.5 μM, [HOCbl] = 17.5 μM, [NAC] = 45 μM, [GSH] = 100 μM): 2.661 | Absorbance at 490 nm, Mean ([1]; as E80, Hcy conc. 0.000): 2.761 | Absorbance at 490 nm, Mean ([1]; as E80, Hcy conc. 1.780): 2.673 | Absorbance at 490 nm, Mean ([1]; as E80, Hcy conc. 3.125): 2.404 | Absorbance at 490 nm, Mean ([1]; as E80, Hcy conc. 6.250): 2.273 | Absorbance at 490 nm, Mean ([1]; as E80, Hcy conc. 12.500): 2.142 | Absorbance at 490 nm, Mean ([1]; as E80, Hcy conc. 25.000): 1.954 | Absorbance at 490 nm, Mean ([1]; as E80, Hcy conc. 50.000): 1.786 | Absorbance at 490 nm, Mean ([1]; as E80, Hcy conc. 100.000): 1.685 | Survival ([1]; compound 30 μM, 50 μM homocysteine): ~60% | Protection compared with GSCbl ([1]; concentrations below 12.5 μM, 30 μM homocysteine, p<0.001): significantly greater than that provided by GSCbl | Protection from homocysteine-induced cell death ([1]; pre-incubation 30 μM two hours, variable homocysteine two hours): protected cells from homocysteine-induced cell death | Survival ([1]; ≧12.5 μM NACCbl, then 30 μM homocysteine 24 hours): 80% | t1/2 [2]: No decomposition within 20 hours | Difference between protection by NACCbl and by GSCbl ([3]; 25 μM H2O2 24 hours): no difference | Concentration required to achieve >80% survival [3, 13]: 100 µM | Preincubation concentration that protected cells from H2O2-induced cell death [3, 13]: ≥ 2.0 µM
